Each block holds one molecule with its values, some of them ahead of it.
Legend:
[1] = system: E. histolytica HM1:IMSS trophozoites; test: E. histolytica trophozoite viability assay (CellTiter-Glo); assay type: cell-based, Entamoeba histolytica; settings: Entamoeba histolytica, 48 h
Description: Trophozoites of E. histolytica HM1:IMSS were maintained in vitro as described in TYI-S-33 medium supplemented with penicillin (100 U/mL) and streptomycin (100 µg/mL). Test compounds were serially diluted and transferred to a white solid bottomed 96-well tissue culture plate (E&K Scientific, Swedesboro, NJ, USA) followed by addition of 5000 E. histolytica trophozoites per well for a final volume of 100 µL TYI-S-33 medium and a final concentration of compounds ranging from 50 to 0.39 µM. Metronidazole were used as positive control and assay plates were incubated for 48 h at 37 °C. The plates maintained kept anaerobically using the GasPak EZ Anaerobic Gas Generating Pouch System (VWR). Parasite viability was measured in triplicate using the CellTiter-Glo luminescence kit (Promega G9243) in an Envision plate reader (Perkin Elmer, Waltham, MA, USA). EC50 values were obtained using GraphPad Prism 9 Software.

[2] = system: G. lamblia (WB strain) trophozoites; test: G. lamblia trophozoite viability assay (CellTiter-Glo); assay type: cell-based, Giardia lamblia; settings: Giardia duodenalis, 48 h
Description: Trophozoites of G. lamblia (WB strain) were maintained in vitro as described in TYI-S-33 medium supplemented with penicillin (100 U/mL) and streptomycin (100 µg/mL). Cells were harvested during the logarithmic phase of the growth for antiparasitic assessment. Test compounds were serially diluted and transferred to a white solid bottomed 96-well tissue culture plate (E&K Scientific, Swedesboro, NJ, USA) followed by addition of 5000 G. lamblia trophozoites for a final volume of 100 µL of TYI-S-33 medium and a final concentration of compounds ranging from 50.0 to 0.39 µM. Metronidazole was used as a positive control and assay plates were incubated for 48 h at 37 °C in the GasPak EZ Anaerobic Gas Generating Pouch System (VWR). Parasite viability was measured in triplicate using the CellTiter-Glo luminescence kit in an Envision plate reader. EC50 values were obtained using the GraphPad Prism 9 Software.

[3] = system: T. cruzi (infecting C2C12); test: T. cruzi intracellular amastigote assay in C2C12 cells (high content imaging); assay type: cell-based, Trypanosoma cruzi; settings: Trypanosoma cruzi, C2C12, 72 h, read-out: EC50 T. cruzi (infecting C2C12)
Description: Mouse C2C12 myoblasts (ATCC CRL-1772) were cultivated in RPMI 1640 medium supplemented with 5% FBS and kept at 37 °C and 5% CO2. T. cruzi CAI-72 trypomastigotes were obtained from the supernatant of C2C12 cells infected four to seven days previously. For the assay, 500 C2C12 cells were mixed with 7500 T. cruzi parasites and seeded into 384-well plates at a 50 µL final volume. Test compounds and reference drugs (Benznidazole and K11777) were pre-spotted into the 384 well black bottom plates prior to the addition of cells and parasites with final assay concentration of 20 µM to 0.02 µM. The plates were incubated at 37 °C^, 5% CO2 for 72 h. Cultures were then fixed with 4% formaldehyde and 0.5 µg/mL DAPI (diamidino-2-phenylindole) was added for staining nucleic acids. Plates were kept protected from light for 1 h and then imaged in an ImageXpress Micro XLS automated high content imager (Molecular Devices, San Jose, CA, USA). Imaging and data analysis were performed as described for L. donovani amastigotes on biological triplicates.

[4] = system: N. fowleri (KUL strain) trophozoites; test: N. fowleri trophozoite viability assay (CellTiter-Glo); assay type: cell-based, Naegleria fowleri; settings: Naegleria fowleri, 48 h
Description: N. fowleri (KUL strain) was cultured in Nelson’s medium supplemented with 10% FBS and kept at 37 °C. For all experiments, trophozoites were harvested during the logarithmic phase of growth. Test compounds were serially diluted and transferred to a white solid bottomed 96-well tissue culture plate (E&K Scientific, Swedesboro, NJ, USA) followed by addition of 10,000 N. fowleri trophozoites in Nelson’s medium in a final volume of 100 µL and a final concentration of compounds ranging from 50 to 0.39 µM. Amphotericin B was used as positive control and assay plates were incubated for 48 h at 37 °C. Parasite viability was measured as described for E. histolytica and G. lamblia. EC50 values were obtained using the GraphPad Prism 9 Software.

[5] = system: L. donovani promastigotes; test: L. donovani promastigote viability assay (resazurin); assay type: cell-based, Leishmania donovani; settings: Leishmania donovani; Figure S1 dose response curves, RFU; read-out: IC50 against the promastigotes of L. donovani
Description: Promastigotes of L. donovani from late log phase culture were diluted to 2.0 × 10^6/mL in M-199 containing 10% FBS, 25 mM HEPES (Gibco 15630-080), 100 µM adenine, 12 mM NaHCO3, 10 µM folic acid, 1% penicillin/streptomycin (Gibco 15140-122) as described previously. Compounds and controls were transferred from compound plates to 384 well assay plates with the use of an acoustic transfer system (ATS, EDC Biosystems, Fremont, CA, USA). Promastigotes were incubated with compounds at 29 °C for 48 h. To measure parasite viability, resazurin sodium salt (7-hydroxy-3H-phenoxazin3-one 10-oxide) was dissolved in PBS and added to each well at a volume of 5 µL (final concentration of 44 µM). After incubating for 4 h at room temperature, fluorescence (ex 571 nm/em 584 nm) was recorded with an Envision (Perkin Elmer, Waltham, MA, USA) microplate fluorescence/luminescence reader. […] For positive and negative control amphotericin B and 0.5% DMSO was used, respectively. Dose response and EC50 analyses were obtained using GraphPad Prism 9 Software (Graph Pad Software Inc., San Diego, CA, USA).

S. mansoni, adult worm = test: S. mansoni adult worm ex vivo phenotypic screen (severity score); assay type: cell-based, Schistosoma mansoni; settings: after 24 h; tested at 10, 5, 2.5 and 1.25 µM; EC50
Description: The Naval Medical Research Institute (NMRI) isolate of S. mansoni was used. The parasite was cycled between Biomphalaria glabrata snails and male Golden Syrian hamsters (infected at 4–6 weeks of age) as intermediate and definitive hosts, respectively. Hamsters were infected and maintained in accordance with protocols approved by the Institutional Animal Care and Use Committee (IACUC) at the University of California San Diego. The acquisition, preparation and in vitro maintenance of S. mansoni have been described. Briefly, adult worms were harvested from hamsters 42 days post-infection in RPMI or DMEM, and washed five times prior to maintenance overnight at 37 °C and 5% CO2 in Basch medium containing 4% heat-inactivated FBS, 100 µg/mL streptomycin and 100 U/mL penicillin.
Ex vivo screens with adults employed 24-well flat-bottomed plates and approximately 5 males and 2–3 females/well. The complex and often dynamic phenotypic responses that the schistosome parasite is capable of were observed using a Zeiss Axiovert A1 inverted microscope at 24 h. Observations were classified using a constrained nomenclature that involves simple “descriptors” to convey changes in shape, motility and appearance, and the inability of the male worm to adhere to the bottom of the well, compared to DMSO controls. Each descriptor was given a value of 1 and these were added up to yield a “severity score” with a maximum of 4. Evidence of degeneracy or death was awarded a value of 4 as was damage to the tegument (parasite’s surface) on the understanding this would compromise survival in vivo. […] Data were averaged across two experiments for each compound concentration tested.

[6] = system: T. b. brucei Lister 427 bloodstream forms; test: T. brucei bloodstream form viability assay (SYBR Green); assay type: cell-based, Trypanosoma brucei; settings: Trypanosoma brucei; bloodstream forms, 72 h
Description: Bloodstream forms of T. b. brucei Lister 427 were cultured in complete HMI-9 medium in T25 suspension culture flasks (Thermo Scientific, Cat. 12-566-84) and maintained at 37 °C and 5% CO2. Trypanosomes were kept in log-phase growth and passaged every 48 h. […] Pentamidine were used as a positive control for T. brucei assay. Compounds were diluted with fresh HMI-9 medium (99 µL/well). Parasites in log-phase were suspended at 2 × 10^5 parasites/mL in HMI-9 medium and then added to each well (100 µL) to give 2 × 10^4 trypanosomes/well. Assay plates were incubated at 37 °C and 5% CO2 for 72 h. Parasite lysate was obtained by addition of 50 µL/well of lysis solution (0.012% saponin, 0.12% Triton X-100, 7.5 mM ETDA, 30 mM Tris, pH 7.5) containing 0.3 µL/mL SYBR Green I (10,000× in DMSO; Invitrogen, Carlsbad, CA, USA). Assay plates were incubated in the dark for 1 h at room temperature. Fluorescence was measured at 485 nm excitation and 535 nm emission wavelengths using an EnVision multilabel plate reader (PerkinElmer, Waltham, MA, USA). In each assay plate, parasite viability was normalized relative to positive (pentamidine) and negative (0.5% DMSO) controls in each assay plate. Assays were performed in biological and technical duplicates, and dose–response and EC50 data were generated with GraphPad Prism 9 using a sigmoidal four parameter logistic curve.

EC50 [1]: 4.4 µM
EC50 [2]: 5.7 µM
SMILES: Cc1ncc([N+](=O)[O-])n1CCO [Metronidazole, metronidazole, reference compound]

SMILES: O=C(Cn1ccnc1[N+](=O)[O-])NCc1ccccc1 [Benznidazole, benznidazole, reference compound]
EC50 [3]: 4.71 µM

EC50 [4]: 0.09 µM
IC50 [5]: 0.74 µM
SMILES: C[C@@H]1[C@H](O)[C@@H](C)/C=C/C=C/C=C/C=C/C=C/C=C/C=C/[C@H](O[C@@H]2O[C@H](C)[C@@H](O)[C@H](N)[C@@H]2O)C[C@@H]2O[C@](O)(C[C@@H](O)C[C@@H](O)[C@H](O)CC[C@@H](O)C[C@@H](O)CC(=O)O[C@H]1C)C[C@H](O)[C@H]2C(=O)O [AmpB, amphotericin B, reference compound]

SMILES: O=C(C1CCCCC1)N1CC(=O)N2CCc3ccccc3C2C1 (stereo not shown) [Praziquantel, praziquantel, reference compound]
S. mansoni, adult worm: least concentration at which a severity score of 4 was recorded (S. mansoni, adult worm): 1.25 µM

SMILES: N=C(N)c1ccc(OCCCCCOc2ccc(C(=N)N)cc2)cc1 [Pentamidine, pentamidine, reference compound]
EC50 [6]: 0.01 µM
